Reference: PMC8217170, “Phase Ib dose-escalation study of the hypoxia-modifier Myo-inositol trispyrophosphate in patients with hepatopancreatobiliary tumors” (Nature Communications, 2021)

Experiment: Plasma levels and pharmacokinetics of intravenous ITPP

## O=P1(O)OC2C3OP(=O)(O)OP(=O)(O)OC3C3OP(=O)(O)OP(=O)(O)OC3C2OP(=O)(O)O1 (centres unmarked) [ITPP, Myo-inositol trispyrophosphate]
Cohort 6, Patient 18, Day 5, Hour 10
  ITPP plasma level, Concentration: 60.6 µg/mL
Cohort 6, Patient 19, Day 1, Hour 0
  ITPP plasma level, Concentration: 0 µg/mL
Cohort 6, Patient 19, Day 1, Hour 3
  ITPP plasma level, Concentration: 392 µg/mL
Cohort 6, Patient 19, Day 1, Hour 6
  ITPP plasma level, Concentration: 294 µg/mL
Cohort 6, Patient 19, Day 1, Hour 8.5
  ITPP plasma level, Concentration: 219 µg/mL
Cohort 6, Patient 19, Day 1, Hour 9
  ITPP plasma level, Concentration: 185 µg/mL
Cohort 6, Patient 19, Day 1, Hour 10
  ITPP plasma level, Concentration: 154 µg/mL
Cohort 6, Patient 19, Day 5, Hour 0
  ITPP plasma level, Concentration: 0 µg/mL
Cohort 6, Patient 19, Day 5, Hour 3
  ITPP plasma level, Concentration: 287 µg/mL
Cohort 6, Patient 19, Day 5, Hour 6
  ITPP plasma level, Concentration: 329 µg/mL
Cohort 6, Patient 19, Day 5, Hour 8.5
  ITPP plasma level, Concentration: 265 µg/mL
Cohort 6, Patient 19, Day 5, Hour 9
  ITPP plasma level, Concentration: 244 µg/mL
Cohort 6, Patient 19, Day 5, Hour 10
  ITPP plasma level, Concentration: 216 µg/mL
Cohort 6, Patient 20, Day 1, Hour 0
  ITPP plasma level, Concentration: 0 µg/mL
Cohort 6, Patient 20, Day 1, Hour 3
  ITPP plasma level, Concentration: 279 µg/mL
Cohort 6, Patient 20, Day 1, Hour 6
  ITPP plasma level, Concentration: 307 µg/mL
Cohort 6, Patient 20, Day 1, Hour 8.5
  ITPP plasma level, Concentration: 282 µg/mL
Cohort 6, Patient 20, Day 1, Hour 9
  ITPP plasma level, Concentration: 396 µg/mL
Cohort 6, Patient 20, Day 1, Hour 10
  ITPP plasma level, Concentration: 396 µg/mL
Cohort 6, Patient 20, Day 5, Hour 0
  ITPP plasma level, Concentration: 0 µg/mL
Cohort 6, Patient 20, Day 5, Hour 3
  ITPP plasma level, Concentration: 411 µg/mL
Cohort 6, Patient 20, Day 5, Hour 6
  ITPP plasma level, Concentration: 595 µg/mL
Cohort 6, Patient 20, Day 5, Hour 8.5
  ITPP plasma level, Concentration: 466 µg/mL
Cohort 6, Patient 20, Day 5, Hour 9
  ITPP plasma level, Concentration: 301 µg/mL
Cohort 6, Patient 20, Day 5, Hour 10
  ITPP plasma level, Concentration: 279 µg/mL
Cohort 6, Patient 21, Day 1, Hour 0
  ITPP plasma level, Concentration: 0 µg/mL
Cohort 6, Patient 21, Day 1, Hour 3
  ITPP plasma level, Concentration: 249 µg/mL
Cohort 6, Patient 21, Day 1, Hour 6
  ITPP plasma level, Concentration: 325 µg/mL
Cohort 6, Patient 21, Day 1, Hour 8.5
  ITPP plasma level, Concentration: 281 µg/mL
Cohort 6, Patient 21, Day 1, Hour 9
  ITPP plasma level, Concentration: 241 µg/mL
Cohort 6, Patient 21, Day 1, Hour 10
  ITPP plasma level, Concentration: 172 µg/mL
Cohort 6, Patient 21, Day 5, Hour 0
  ITPP plasma level, Concentration: 0 µg/mL
Cohort 6, Patient 21, Day 5, Hour 3
  ITPP plasma level, Concentration: 350 µg/mL
Cohort 6, Patient 21, Day 5, Hour 6
  ITPP plasma level, Concentration: 204 µg/mL
Cohort 6, Patient 21, Day 5, Hour 8.5
  ITPP plasma level, Concentration: 217 µg/mL
Cohort 6, Patient 21, Day 5, Hour 9
  ITPP plasma level, Concentration: 184 µg/mL
Cohort 6, Patient 21, Day 5, Hour 10
  ITPP plasma level, Concentration: 125 µg/mL
Cohort 7, Patient 22, Day 1, Hour 0
  ITPP plasma level, Concentration: 0 µg/mL
Cohort 7, Patient 22, Day 1, Hour 3
  ITPP plasma level, Concentration: 280 µg/mL
Cohort 7, Patient 22, Day 1, Hour 6
  ITPP plasma level, Concentration: 384 µg/mL
Cohort 7, Patient 22, Day 1, Hour 8.5
  ITPP plasma level, Concentration: 281 µg/mL
Cohort 7, Patient 22, Day 1, Hour 9
  ITPP plasma level, Concentration: 215 µg/mL
Cohort 7, Patient 22, Day 1, Hour 10
  ITPP plasma level, Concentration: 152 µg/mL
Cohort 7, Patient 22, Day 5, Hour 0
  ITPP plasma level, Concentration: 0 µg/mL
Cohort 7, Patient 22, Day 5, Hour 3
  ITPP plasma level, Concentration: 257 µg/mL
Cohort 7, Patient 22, Day 5, Hour 6
  ITPP plasma level, Concentration: 351 µg/mL
Cohort 7, Patient 22, Day 5, Hour 8.5
  ITPP plasma level, Concentration: 319 µg/mL
Cohort 7, Patient 22, Day 5, Hour 9
  ITPP plasma level, Concentration: 302 µg/mL
Cohort 7, Patient 22, Day 5, Hour 10
  ITPP plasma level, Concentration: 203 µg/mL
Cohort 7, Patient 23, Day 1, Hour 0
  ITPP plasma level, Concentration: 0 µg/mL
Cohort 7, Patient 23, Day 1, Hour 3
  ITPP plasma level, Concentration: 286 µg/mL
Cohort 7, Patient 23, Day 1, Hour 6
  ITPP plasma level, Concentration: 329 µg/mL
Cohort 7, Patient 23, Day 1, Hour 8.5
  ITPP plasma level, Concentration: 316 µg/mL
Cohort 7, Patient 23, Day 1, Hour 9
  ITPP plasma level, Concentration: 178 µg/mL
Cohort 7, Patient 23, Day 1, Hour 10
  ITPP plasma level, Concentration: 119 µg/mL
Cohort 7, Patient 23, Day 5, Hour 0
  ITPP plasma level, Concentration: 0 µg/mL
Cohort 7, Patient 23, Day 5, Hour 3
  ITPP plasma level, Concentration: 282 µg/mL
Cohort 7, Patient 23, Day 5, Hour 6
  ITPP plasma level, Concentration: 478 µg/mL
Cohort 7, Patient 23, Day 5, Hour 8.5
  ITPP plasma level, Concentration: 418 µg/mL
Cohort 7, Patient 23, Day 5, Hour 9
  ITPP plasma level, Concentration: 188 µg/mL
Cohort 7, Patient 23, Day 5, Hour 10
  ITPP plasma level, Concentration: 185 µg/mL
Cohort 7, Patient 24, Day 1, Hour 0
  ITPP plasma level, Concentration: 0 µg/mL
Cohort 7, Patient 24, Day 1, Hour 3
  ITPP plasma level, Concentration: 278 µg/mL
Cohort 7, Patient 24, Day 1, Hour 6
  ITPP plasma level, Concentration: 230 µg/mL
Cohort 7, Patient 24, Day 1, Hour 8.5
  ITPP plasma level, Concentration: 226 µg/mL
Cohort 7, Patient 24, Day 1, Hour 9
  ITPP plasma level, Concentration: 152 µg/mL
Cohort 7, Patient 24, Day 1, Hour 10
  ITPP plasma level, Concentration: 103 µg/mL
Cohort 7, Patient 24, Day 2, Hour 0
  ITPP plasma level, Concentration: 0 µg/mL
Cohort 7, Patient 24, Day 2, Hour 9
  ITPP plasma level, Concentration: 143 µg/mL
Cohort 7, Patient 24, Day 3, Hour 0
  ITPP plasma level, Concentration: 0 µg/mL
Cohort 7, Patient 24, Day 3, Hour 9
  ITPP plasma level, Concentration: 237 µg/mL
Cohort 7, Patient 24, Day 4, Hour 0
  ITPP plasma level, Concentration: 0 µg/mL
Cohort 7, Patient 24, Day 4, Hour 9
  ITPP plasma level, Concentration: 199 µg/mL
Cohort 7, Patient 24, Day 5, Hour 0
  ITPP plasma level, Concentration: 0 µg/mL
Cohort 7, Patient 24, Day 5, Hour 3
  ITPP plasma level, Concentration: 299 µg/mL
Cohort 7, Patient 24, Day 5, Hour 6
  ITPP plasma level, Concentration: 358 µg/mL
Cohort 7, Patient 24, Day 5, Hour 8.5
  ITPP plasma level, Concentration: 245 µg/mL
Cohort 7, Patient 24, Day 5, Hour 9
  ITPP plasma level, Concentration: 200 µg/mL
Cohort 7, Patient 24, Day 5, Hour 10
  ITPP plasma level, Concentration: 141 µg/mL
Cohort 7, Patient 24, Day 6, Hour 0
  ITPP plasma level, Concentration: 0 µg/mL
Cohort 7, Patient 24, Day 6, Hour 9
  ITPP plasma level, Concentration: 200 µg/mL
Cohort 7, Patient 24, Day 7, Hour 0
  ITPP plasma level, Concentration: 0 µg/mL
Cohort 7, Patient 24, Day 7, Hour 9
  ITPP plasma level, Concentration: 208 µg/mL
Cohort 7, Patient 24, Day 8, Hour 0
  ITPP plasma level, Concentration: 0 µg/mL
Cohort 7, Patient 24, Day 8, Hour 9
  ITPP plasma level, Concentration: 181 µg/mL
Cohort 7, Patient 24, Day 9, Hour 0
  ITPP plasma level, Concentration: 0 µg/mL
Cohort 7, Patient 24, Day 9, Hour 3
  ITPP plasma level, Concentration: 247 µg/mL
Cohort 7, Patient 24, Day 9, Hour 6
  ITPP plasma level, Concentration: 345 µg/mL
Cohort 7, Patient 24, Day 9, Hour 8.5
  ITPP plasma level, Concentration: 217 µg/mL
Cohort 7, Patient 24, Day 9, Hour 9
  ITPP plasma level, Concentration: 199 µg/mL
Cohort 7, Patient 24, Day 9, Hour 10
  ITPP plasma level, Concentration: 143 µg/mL
Cohort 8, Patient 25, Day 1, Hour 0
  ITPP plasma level, Concentration: 0 µg/mL
Cohort 8, Patient 25, Day 1, Hour 3
  ITPP plasma level, Concentration: 388 µg/mL
Cohort 8, Patient 25, Day 1, Hour 6
  ITPP plasma level, Concentration: 497 µg/mL
Cohort 8, Patient 25, Day 1, Hour 8.5
  ITPP plasma level, Concentration: 505 µg/mL
Cohort 8, Patient 25, Day 1, Hour 9
  ITPP plasma level, Concentration: 317 µg/mL
Cohort 8, Patient 25, Day 1, Hour 10
  ITPP plasma level, Concentration: 194 µg/mL
Cohort 8, Patient 25, Day 5, Hour 0
  ITPP plasma level, Concentration: 0 µg/mL
Cohort 8, Patient 25, Day 5, Hour 3
  ITPP plasma level, Concentration: 354 µg/mL
Cohort 8, Patient 25, Day 5, Hour 6
  ITPP plasma level, Concentration: 495 µg/mL
Cohort 1, 1866 mg/m2
  AUC: 350.7 µg·h/mL
  AUMC: 1994.7 h2*mg/L
  CL: 4.8 L/h
  Clast: 19200 ng/mL
  Cmax: 47200 ng/mL
  Cmin: 0 ng/mL
  Elimination rate λz: 0.5 h⁻¹
  Half life/T0.5: 1.3 h
  MRT: 1.7 h
  Tlast: 10.0 h
